Assay results as given in patent US6646003B2, “Method of treating ocular inflammatory and angiogenesis-related disorders of the posterior segment of the eye using an amide derivative of flurbiprofen or ketorolac” (Alcon, Inc., priority 2001, dated 2003).
Values belong to the molecule of their own block, whether it stands above or below them.

Assays:
[1] = in vitro corneal drug permeation (perfusion chamber, HPLC); type: in vitro ADME, NZA rabbits; settings: continued drug perfusion of the corneal epithelium, excised rabbit cornea, GBR buffer
Experimental: Freshly excised corneas were obtained from 6-week old NZA rabbits (1.3-1.5 kg). Corneas were mounted in a modified Lucite perfusion chamber and perfused with glutathione-supplemented bicarbonated Ringer (GBR) buffer as previously described^1. Drug concentrations in GBR buffer were as indicated (FIG. 1), with the corneal epithelial cell layer facing the drug containing donor compartment. The final volume of the donor and receiver side of the perfusion chamber was 7.0 mL. Samples of 0.1 mL were withdrawn from both chambers at the beginning of the experiment and at 20 to 30 minute intervals thereafter through six hours. Samples were mixed with an equal volume of methanol and immediately subjected to HPLC analysis. HPLC analysis was carried out on a 25 cm×4.6 mm I.D. Spherosorb RP-18, 10μ column at a flow rate of 2.0 ml/min. The column effluent was monitored with a flow monitor at a wavelength of 230 nm. Elution of NSAID free acids and amides was accomplished with an eluant mixture composed of methanol:water:phosphoric acid (60/40/1 (v/v/v)) (pH 3.0). The eluant mixture was changed to methanol:water:phosphoric acid (60/40/1 (v/v/v)) (pH 3.0) when suprofen and suprofen amide were subjected to HPLC analysis.

[2] = in vitro metabolism: hydrolytic conversion of NSAID amides to free carboxylic acids; type: in vitro ADME, NZA rabbit; settings: rabbit iris/ciliary body, 36° C.; for rate of drug hydrolysis by the ICB: GBR buffer pH 7.6, four to six hours; for hydrolytic bioactivation by the ICB (result in words): GBR buffer pH 7.6
Experimental: Freshly dissected iris/ciliary body from the NZA rabbit was incubated at 36° C. for a period of four to six hours in 0.5 ml of GBR buffer (pH 7.6) supplemented with amide derivatives of the indicated NSAIDs. Samples of 0.1 ml were removed for HPLC analysis to monitor the hydrolytic conversion of NSAID amides to free carboxylic acids.

[3] = tested on: paracentesis-induced breakdown of the BAB; assay: inhibition of trauma-induced ocular inflammation (rabbit model of paracentesis); type: in vivo; settings: for inhibition of paracentesis-induced breakdown of the BAB: single 50 μL topical ocular drop of 0.1% solution/suspension 45 minutes prior to paracentesis, rabbit; for topical ocular in vivo antiinflammatory activity (result in words): 0.1% topical ocular dose, rabbit paracentesis model
Experimental: Effects of a single prophylactic topical ocular dose of the tested compounds were examined in a rabbit model of paracentesis (Graff, et al., Ocular Immunol. Inflamm., 6:227-238 (1998)). Briefly, a single 50 μL drop of a 0.1% drug solution/suspension was administered topically onto the eye 45 minutes prior to paracentesis and removal of ˜150 μL of aqueous humor. Thirty minutes after execution of paracentesis aqueous humor was removed (˜100 μL) for analysis. Both pre- and post-paracentesis samples were assayed for protein and PGE2 content.

Structure (SMILES): NC(=O)Cc1cccc(C(=O)c2ccccc2)c1N [amide derivative of amfenac]
permeation coefficient [1]: 7.4 cm/min^−1×10^−5
rate of drug hydrolysis by the ICB [2]: 0.69 nM/min/mg tissue
inhibition of paracentesis-induced breakdown of the BAB [3]: 64%

Structure (SMILES): NC(=O)Cc1cccc(C(=O)c2ccc(Br)cc2)c1N [amide derivative of bromfenac]
rate of drug hydrolysis by the ICB [2]: 0.17 nM/min/mg tissue

Structure (SMILES): NC(=O)Cc1ccccc1Nc1c(Cl)cccc1Cl [amide derivative of diclofenac]
permeation coefficient [1]: 7.8 cm/min^−1×10^−5
hydrolytic bioactivation by the ICB (result in words) [2]: resistant to hydrolytic bioactivation
topical ocular in vivo antiinflammatory activity (result in words) [3]: no antiinflammatory effects were detectable

Structure (SMILES): CC(C(N)=O)c1ccc(-c2ccccc2)c(F)c1 (stereo not drawn) [amide derivative of flurbiprofen, 2-(3-fluoro-4-phenyl)-propionamide]
rate of drug hydrolysis by the ICB [2]: 0.29 nM/min/mg tissue
inhibition of paracentesis-induced breakdown of the BAB [3]: 29%

Structure (SMILES): NC(=O)C1CCn2c(C(=O)c3ccccc3)ccc21 (stereo not drawn) [amide derivative of ketorolac, 5-benzoyl-2,3-dihydro-1H-pyrrolizine-1-carboxamide]
rate of drug hydrolysis by the ICB [2]: 2.42 nM/min/mg tissue

Structure (SMILES): CC(C(=O)O)c1ccc(-c2ccccc2)c(F)c1 (stereo not drawn) [flurbiprofen]
inhibition of paracentesis-induced breakdown of the BAB [3]: 50%

Continued, in another order:

hydrolytic bioactivation by the ICB (result in words) [2]: resistant to hydrolytic bioactivation
Structure (SMILES): CC(C(N)=O)c1ccc(C(=O)c2cccs2)cc1 (stereo not drawn) [amide derivative of suprofen, α-methyl-4-(2-thienylcarbonyl)-benzeneacetamide]

hydrolytic bioactivation by the ICB (result in words) [2]: resistant to hydrolytic bioactivation
Structure (SMILES): CN(C)C(=O)Cc1cccc(C(=O)c2ccc(Br)cc2)c1N [dimethyl amide derivative of bromfenac, N,N-dimethyl 2-amino-3-(4-bromobenzoyl)benzeneacetamide]
topical ocular in vivo antiinflammatory activity (result in words) [3]: no antiinflammatory effects were detectable

rate of drug hydrolysis by the ICB [2]: 0.16 nM/min/mg tissue
Structure (SMILES): CNC(=O)Cc1cccc(C(=O)c2ccc(Br)cc2)c1N [monomethyl amide derivative of bromfenac, N-methyl 2-amino-3-(4-bromobenzoyl)benzeneacetamide]
